According to patent publication US10383956B2, “Fluorescent probe for detecting dipeptidyl peptidase IV” (The University of Tokyo, priority 2014, dated 2019):

Assays:
DPP-IV = DPP-IV (Homo sapiens, UniProt P27487); experiment: DPP-IV assay by fluorescent probe (absorption/fluorescence change, HPLC); type: biochemical
Method: Next, DPP-IV was caused to act on compound 1, and the changes in the absorption spectrum and fluorescence spectrum were measured. The results are shown in FIG. 1 (the concentration of compound 1 was 3.5 μM).
Similarly, DPP-IV was caused to act on compound 1, and analysis was conducted by HPLC chromatography.
In addition to compound 1, fluorescence assays were conducted on compounds 2-6 synthesized in the same way in Example 1. For the solution conditions, a solution comprising 18 μL of solution comprising a fluorescent probe concentration of 1.1 μM and 20 mM Tris HCl buffer (pH 7.1), and 2 μL of solution comprising DPP-IV and 20 mM Tris HCl buffer was used. The results obtained by adding DPP-IV to each solution containing a fluorescent probe and measuring the increase in the fluorescence intensity are shown in FIGS. 3 and 4 (excitation wavelength 501 nm, fluorescence wavelength 524 nm). FIG. 3 is a graph snowing the fluorescence intensity increase rate six minutes after DPP-IV addition; FIG. 4 is a graph plotting the time dependence of the fluorescence intensity.

[1] = Absorption and fluorescence spectra of probe and HMRG; type: physicochemical
Excerpt: The absorption spectra and fluorescence spectra of compound 1 (GP-HRMG) having a glycine-proline dipeptide site synthesized in Example 1 and hydroxymethyl rhodamine green (HRMG) not having a dipeptide site were each measured.

[2] = system: human esophageal squamous cell carcinoma cells (KYSE30, KYSE270, KYSE140, KYSE520, KYSE150, KYSE 1170); experiment: Live cell imaging in cultured esophageal cancer cells; type: cell-based; conditions: FIG. 5
Method: Imaging was conducted over time after adding GP-HMRG (compound 1) to six types of human esophageal squamous cell carcinoma cells.
As human esophageal squamous cell carcinoma cells, two highly differentiated types (KYSE30, KYSE270), two moderately differentiated types (KYSE140, KYSE520), and two lowly differentiated types (KYSE150, KYSE 1170) were cultured for two days at 37° C., 5% CO2 using a μ-Slide 8 well.

[3] = system: human esophageal cancer surgical specimens and ESD specimens; experiment: Imaging of human esophageal surgical specimens and ESD specimens; conditions: surgical specimen; probe 50 μM with DPP-IV inhibitor, adhered five minutes; FIG. 10
Method: Esophageal specimens from patients who underwent surgery and endoscopic submucosal dissection (ESD) for esophageal cancer were brought immediately after removal in each treatment (meaning surgical specimens and ESD specimens, respectively) to an imaging room, and imaging was conducted over time after spraying the specimens directly with various fluorescent probes (compounds 1-6). For surgical specimens, 10 μL of a DMSO solution (10 mM) of the various fluorescent probes was dissolved in 2 mL of RPMI 1640 (phenol red-free) (final probe concentration 50 μM), and imaging was conducted using a Maestro In Vivo Imaging System Ex after spraying the fluorescent probe on the specimen using a spray tube for an endoscope. For ESD specimens, 3 μL of a DMSO solution (10 mM) of the various fluorescent probes was dissolved in 600 μL of RPMI 1640 (phenol red-free) (final probe concentration 50 μM), and imaging was conducted using a Maestro In Vivo Imaging System Ex after adding the fluorescent probe dropwise to the specimen.
Specifically, gauze impregnated with 5 μL of a DMSO solution (10 mM) of EP-HMRG (compound 2) dissolved in 1 mL of RPMI 1640 (phenol red-free) (final probe concentration 50 μM) and gauze impregnated with 5 μL of a DMSO solution (10 mM) of EP-HMRG (compound 2) and 5 μL of a DPP-IV inhibitor (10 mM) dissolved in 1 mL of RPMI 1640 (phenol red-free) were used. […]

Sequence of DPP-IV (P27487 whole entry, species assumed): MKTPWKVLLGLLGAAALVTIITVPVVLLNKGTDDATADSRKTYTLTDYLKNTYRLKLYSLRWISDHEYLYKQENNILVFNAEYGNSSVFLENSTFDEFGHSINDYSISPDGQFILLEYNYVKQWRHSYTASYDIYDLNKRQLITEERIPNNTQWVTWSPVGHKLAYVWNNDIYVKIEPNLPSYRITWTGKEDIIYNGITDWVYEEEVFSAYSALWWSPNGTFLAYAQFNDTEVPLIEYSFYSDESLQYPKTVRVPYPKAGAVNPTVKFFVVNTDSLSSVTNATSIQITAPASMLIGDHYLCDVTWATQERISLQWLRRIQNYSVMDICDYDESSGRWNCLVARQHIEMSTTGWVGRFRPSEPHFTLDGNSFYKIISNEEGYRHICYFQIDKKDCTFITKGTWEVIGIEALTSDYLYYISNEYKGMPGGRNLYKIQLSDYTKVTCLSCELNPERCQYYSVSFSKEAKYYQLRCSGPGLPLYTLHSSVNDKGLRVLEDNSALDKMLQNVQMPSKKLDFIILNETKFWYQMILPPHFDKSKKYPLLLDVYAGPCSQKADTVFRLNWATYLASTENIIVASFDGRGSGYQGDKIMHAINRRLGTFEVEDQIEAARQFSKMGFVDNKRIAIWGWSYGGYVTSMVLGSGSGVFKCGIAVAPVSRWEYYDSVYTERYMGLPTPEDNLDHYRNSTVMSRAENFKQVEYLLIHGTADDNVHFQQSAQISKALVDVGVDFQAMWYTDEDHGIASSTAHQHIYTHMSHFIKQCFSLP

Molecule	HPLC analysis after reaction with DPP-IV (DPP-IV; FIG. 2)	Change in absorption and fluorescence spectrum on addition of DPP-IV (DPP-IV; compound concentration 3.5 μM, FIG. 1)	Maximum absorption wavelength [1] [nm]	Maximum fluorescence wavelength [1] [nm]	pKcycl [1]	Structure form under neutral conditions ([1]; neutral conditions)	Molar extinction coefficient at pH 7.4 [1]	Fluorescence intensity in live cells with DPP-IV inhibitor added ([2]; probe 5 μM + 100 μM DPP-IV inhibitor, 60 minutes)	Fluorescence intensity in live cells over time ([2]; probe 10 μM, observed 60 minutes, six cell lines)	Fluorescence intensity in tumor areas with DPP-IV inhibitor [3]	Fluorescence quantum yield [1]
NCC(=O)N1CCC[C@H]1C(=O)Nc1ccc2c(c1)Oc1cc(N)ccc1C21OCc2ccccc21 (stereo partly drawn) [Compound 1]	hydrolyzed and cleaved by DPP-IV	increase in the absorbance and fluorescence intensity	496	527	5.0	present mainly in a colorless, non-fluorescent, closed-ring structure	300 M^−1cm^−1	fluorescence intensity was lower with the probe with inhibitor added	increase in fluorescence intensity was seen over time in all of the cells	–	–
Nc1ccc2c(c1)Oc1cc(NC(=O)[C@@H]3CCCN3C(=O)[C@@H](N)CCC(=O)O)ccc1C21OCc2ccccc21 (stereo partly drawn) [Compound 2]	–	–	–	–	–	–	–	–	–	increase in fluorescence intensity was not seen in tumor areas	–
hydroxymethyl rhodamine green [HMRG, reference compound]	–	–	501	524	8.1	–	57,000 M^−1cm^−1	–	–	–	0.81
